{"source": "patent US8193235B2", "about": "“Compositions and methods for establishing and maintaining stem cells in an undifferentiated state” (University of Kansas, priority 2009, dated 2012)", "key": {"ES cells": {"tested_on": "ES cells", "assay": "Quantitative Clonal Assay (survival at clonal density)", "format": "cell-based, mouse", "details": "≦10 μM", "description": "Quantitative Clonal Assay. ES and iPS cells were dissociated into single cells using 0.05% trypsin/EDTA and 2-20 cells were plated on each well of a 96-well culture plate. The cells were cultured for 6-7 days, colonies were stained for Nanog, and the number of Nanog positive colonies was counted. […] This procedure was repeated for five consecutive passages (>30 days)."}, "R1 ES cells": {"tested_on": "R1 ES cells", "assay": "R1 ES cells without LIF and MEF feeder", "format": "cell-based, mouse", "description": "R1 ES Cells. R1 Cells were maintained on MEF feeder in ES-IMDM media supplemented with 15% ES-cell quality serum, 10^5 U/100 ml of LIF. Cells were grown for 3-5 days with change of medium every day. For inducing differentiation in monolayer culture and to determine the effect of Gö6983, cells were cultured at feeder-free condition and without LIF for 7 days."}, "Akt": {"tested_on": "Akt", "assay": "Akt phosphorylation in mESCs", "format": "cell-based, mouse", "description": "E14 ES Cell Cultures. Cells were grown in ES-IMDM media (Lonza, Walkersville, Md.) in a feeder-free condition. ES-IMDM was supplemented with 15% serum, 10^5 U/100 ml of LIF (ESGRO, Millipore, Calif.) and 0.0124% monothioglycerol (MTG; Sigma Aldrich). Cells were grown for 3-5 days with change of medium every day. For inducing differentiation in monolayer culture and to determine the effect of Gö6983 in preventing differentiation, E14 cells were cultured on gelatin-coated plastics for 8 days without LIF. Details of experiments performed at clonal-density are described herein. To maintain E14 cells with Gö6983, serum supplemented ES-IMDM was used in the presence of 5 μM Gö6983 and was passed after every 3-5 days. For all assays involving elucidation of different signaling mechanism responsible for maintenance of pluripotency, cells from a ˜70% confluent ES culture plate were washed two times with 1× phosphate-buffered saline (PBS), trypsinized and plated on a 6-well tissue culture plate and treated with or without LIF or Gö6983 or different inhibitors for ˜10 hours followed by preparation of protein lysates and RNA. The PKCζ knocked-down E14 cells that were generated in this study were maintained in serum supplemented ES-IMDM on gelatin-coated plates in the absence of Gö6983 or LIF or any other inhibitor and passed after 3-5 days. […]"}, "NF-κB target genes": {"tested_on": "NF-κB target genes", "assay": "RT-PCR analysis of NF-κB target gene expression", "format": "cell-based, mouse", "description": "Quantitative RT-PCR Analysis. RNA was extracted from different cell samples with TRIZOL reagent (Invitrogen). cDNA was prepared by annealing RNA (1 μg) with 250 ng of a 5:1 mixture of random and oligo(dT) primers heated at 68° C. for 10 minutes. This was followed by incubation with Moloney murine leukemia virus reverse transcriptase (50 units) (Invitrogen, Carlsbad, Calif.) combined with 10 mM DTT, RNasin (PROMEGA, Madison, Wis.), and 0.5 mM dNTPs at 42° C. for 1 hour. Reactions were diluted to a final volume of 100 μl and heat inactivated at 97° C. for 5 minutes. Twenty μl PCR reactions contained 2 μl cDNA, 10 μl SYBR Green Master Mix (Applied Biosystems, Foster City, Calif.) and corresponding primer sets. Relative expression levels were determined from a standard curve of serial dilutions of proliferating ES cell cDNA samples and were normalized to the expression of glyceraldehyde-3-phosphate dehydrogenase (GAPDH). At least three independent experiments were done for each set of data."}, "NF-κB": {"tested_on": "NF-κB", "assay": "NF-κB5X-Luc reporter activation", "format": "cell-based, mouse", "details": "E14 cells", "description": "Analysis of NF-κB5X-Luc Reporter Activation. E14 ES or PKCζkd cells (2-4×10^4) were seeded on 24-well plates […]. Cells were transfected with 1 μg of plasmid ([…] NF-kB cis-Reporting System, Stratagene) in OPTI-MEM. Transfection mixture was removed after 5 hours with appropriate media. Luciferase activity was measured 24 hours post-transfection and expressed relative to total protein present in the whole cell lysate."}, "[1]": {"tested_on": "human ES cells (H9 cells)", "assay": "Human ES cells in feeder-free culture, MEF-conditioned medium", "format": "cell-based"}}, "note": "“Also recorded” adds a separate entry of the source."}
{"molecule": "COc1ccc2c(c1)c(C1=C(c3c[nH]c4ccccc34)C(=O)NC1=O)cn2CCCN(C)C", "note": "[Gö6983, 3-[1-[3-(dimethylamino)propyl]5-methoxy-1H-indol-3-yl]-4-(1H-indol-3-yl)-1H-pyrrole-2,5-dione]", "values": [{"measurement": "loss in ES cell survival at clonal density", "setting": "ES cells", "result": "no significant loss"}, {"measurement": "maintenance of undifferentiated R1 ES cells", "setting": "R1 ES cells", "result": "replaced the requirement of LIF and MEF"}, {"measurement": "Akt phosphorylation", "setting": "Akt", "result": "not associated with Akt phosphorylation"}, {"measurement": "activation of NF-κB target gene transcription", "setting": "NF-κB target genes; E14 cells, absence of LIF, FIG. 3A", "result": "inhibited their activation"}, {"measurement": "activation of NF-κB target genes, RelA phosphorylation and reporter Luciferase", "setting": "NF-κB target genes; PKCζkd cells cultured on collagen IV", "result": "inhibited the activation"}, {"measurement": "NFκ5x-Luc reporter gene activation", "setting": "NF-κB", "result": "strongly inhibited"}, {"measurement": "undifferentiated morphology and SSEA4 expression of human ES cells", "setting": "[1]; MEF-conditioned medium, multiple passages", "result": "maintained their undifferentiated morphology and expression of pluripotency marker"}, {"measurement": "SSEA4 expression in H9 colonies", "setting": "[1]; versus TeSR1 medium or conditioned medium with bFGF, FIG. 5", "result": "sustained high levels of SSEA4 expression; also recorded: comparable"}, {"measurement": "Oct4 protein expression in human ES cells", "setting": "[1]; versus conditioned medium alone", "result": "High levels of Oct4 protein expression"}]}
